According to patent publication US20120046273A1, “COMPOUNDS AND COMPOSITIONS FOR COGNITION-ENHANCEMENT, METHODS OF MAKING, AND METHODS OF TREATING” (MITHRIDION, INC., priority 2009, published 2012):
Counter-ions that a name gives are not always drawn.

Assays:
[1] = tested on: salivary gland inositol phosphate signaling pathway; assay: In vivo tissue inositol phosphate signaling pathway activation, salivary gland; parameters: species or system rat; details: 1 mg/kg of 82
Experimental: (§1) Experimental compounds or drug substances were administered using standard techniques to Long Evans Hooded rats weighing 225 to 350 grams, and which had been pretreated with a subcutaneous injection of lithium chloride at a suitable dose between 3 and 10 mmoles per kg. At suitable times the animals were briefly anesthetized using 5% isoflurane and euthanized by decapitation. The brains and submaxillary salivary glands were rapidly dissected out, and the hippocampuses were dissected from the brains. The dissected tissues were homogenized in a suitable volume of ice-cold phosphate-buffered saline containing 10 mM lithium chloride, pH7.4, using a tissue homogenizer, and used immediately or frozen in aliquots at −80degC. for future use. The concentration of inositol-1-phosphate was determined in the homogenates using the IPOne TR-FRET assay (CisBio cat no 621PAPEB), following the manufacturer's instruction

[2] = tested on: hippocampal inositol phosphate signaling pathway; assay: In vivo tissue inositol phosphate signaling pathway activation, hippocampus; parameters: species or system rat; details: 1 mg/kg of 82; NMS 0.1 mg/kg
Experimental: as §1

[3] = tested on: anesthetized normal rats; assay: In vivo measurement of salivation; parameters: species or system rat
Experimental: Suitable doses of test compounds or drug substances were administered using standard techniques to Long Evans Hooded rats weighing 225 to 350 grams, or CD-1 mice weighing 30 to 50 grams, which had been anesthetized using 2-3.5%% of isoflurane in oxygen. The animals were placed slightly head-down on an inclined, heated ramp. Rectal temperature was monitored using a thermocouple and the temperature of the heating pad was adjusted manually to maintain normal body temperature. Saliva was collected from the mouth by absorption onto pre-weighed slips of filter paper. The filter paper was changed periodically and the amount of saliva was measured by weighing the filter paper slips

[4] = tested on: anesthetized rats; assay: Salivation on iontophoretic transdermal delivery of agonist and antagonist from one patch; assay type: in vivo, rat; details: patch with 1 mg of 82 plus 0.01mg antagonist
Experimental: Experimental compounds and drug substances were delivered transdermally in rats using iontophoresis as follows. The fur was shaved from the backs of Long Evans Hooded rats weighing 225 to 325 grams, using electric clippers. Experimental compounds and drug substances were formulated at suitable concentrations an aqueous mixture of the following composition:
The polyvinyl alcohol/water was heated to 95 degC. until it became clear, then the other constituents were added and mixed well. The mixture was introduced into suitable molds containing a disc-shaped cavity 2.2 cm diameter and 2.2 mm deep. Molds may be fabricated using two glass sheets separated by a silicone rubber sheet with suitable sized cavities and filling ports cut-outs. The molds were subject to 3 freeze-thaw cycles at −80degC. and 20degC. until a firm cryogel was obtained. The gels were separated from the molds and trimmed into a circular shape. The gel was placed in a silicone rubber casing with one face in contact with a circular silver foil anodic electrode (22 mm dia/250 microns thick), and the assembly was placed on the shaved skin of the rat such that the other face was in contact with the skin on one side of the back of the rat. The rubber casing formed a seal over and around the gel/electrode assembly. […] This was placed on the other side of the shaved back of the rat, the edges of the gel discs being about 20 mm apart at their nearest point. A DC voltage was applied across the two patches from a constant-current DC power supply and the voltage adjusted to obtain the desired current, such that the skin of the animal completed the electrical circuit.
The devices were placed on shaved backs of anesthetized rats and salivation was measured.
The animals were placed slightly head-down on an inclined, heated ramp. Rectal temperature was monitored using a thermocouple and the temperature of the heating pad was adjusted manually to maintain normal body temperature. Saliva was collected from the mouth by absorption onto pre-weighed slips of filter paper. The filter paper was changed periodically and the amount of saliva was measured by weighing the filter paper slips

[5] = target: T1, rat M1 receptors (Rattus norvegicus, UniProt P08482); assay: PI turnover (inositol phosphate production) in M1-CHO cells; assay type: cell-based; details: for functional selectivity for M1- versus M3-subtype by PI turnover: cell lines expressing individual subtypes of muscarinic receptors; for M1/CHO PI turnover Relative Mean Smax: relative to mean Smax for carbachol (100.0)
T1 construct: host or cells: Chinese Hamster Ovary cells (M1-CHO)
T1 sequence (P08482 1-460): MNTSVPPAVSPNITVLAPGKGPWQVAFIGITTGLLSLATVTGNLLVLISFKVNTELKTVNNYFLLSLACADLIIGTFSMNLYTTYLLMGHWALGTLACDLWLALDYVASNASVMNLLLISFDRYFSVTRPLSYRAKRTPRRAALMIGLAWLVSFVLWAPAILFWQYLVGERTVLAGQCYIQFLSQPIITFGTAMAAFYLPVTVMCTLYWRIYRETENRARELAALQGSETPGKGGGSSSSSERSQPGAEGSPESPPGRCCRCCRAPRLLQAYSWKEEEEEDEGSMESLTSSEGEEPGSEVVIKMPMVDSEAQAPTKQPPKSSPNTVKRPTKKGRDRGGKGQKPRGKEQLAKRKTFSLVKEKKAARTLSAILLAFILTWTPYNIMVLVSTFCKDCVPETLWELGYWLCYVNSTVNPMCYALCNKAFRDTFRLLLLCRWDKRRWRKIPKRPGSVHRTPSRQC
Experimental: (§2) The medium was changed to 70 μL/well of inositol-free DMEM containing 2 mM glutamine, 10% FBS and 10 μCi/ml of [3H]-inositol (PE:cat # NET114A250UC), incubated overnight as above, then 100 μL of a solution of the test compound in HBSS containing 10 mM LiCl and 20 mM HEPES, pH 7.4 was added, incubation was continued for 60 min under the above conditions, and the test was stopped by removing the test compound and replacing with 100 μL of 50 mM formic acid in water at 4° C.

[6] = tested on: rats; assay: Salivary flow in rats dosed orally; assay type: in vivo, rat
[7] = rat, in vivo, po
[8] = target: T2, rat M3 receptors (Rattus norvegicus, UniProt P08483); assay: PI turnover (inositol phosphate production) in M3-CHO cells; assay type: cell-based; details: relative to mean Smax for carbachol (100.0)
T2 construct: host or cells: Chinese Hamster Ovary cells (M3-CHO)
Experimental: as §2

[9] = Brain concentrations in rats after oral gavage; assay type: in vivo, rat; details: for Brain Cmax (10 mg/kg po) MCD-386 = 1.00: rat, relative to MCD-386; for penetration into the brain: rats after oral dosing
Experimental: Long-Evans Hooded rats (Charles River: male, 250-350 g) were dosed with solutions of test compounds in PBS by oral gavage. At the desired time after dosing, the animals were anesthetized with isoflurane, and then euthanized by cervical dislocation. Blood was obtained by cardiac puncture, transferred to a 1.5 mL microcentrifuge tube containing 15U Heparin, and the plasma recovered after centrifugation. Brains were dissected, weighed, immediately chilled to 4° C., and homogenized using a PowerGen 125 homogenizer in five volumes of ice-cold 2% formic acid. Proteins were precipitated from plasma and brain homogenate with two and five volumes respectively of ice-cold 2% formic acid and clarified by centrifugation. The supernatant was ultra-filtered by centrifugation through a 3K MWCO spin column (Pall Life Sciences), following the manufacturer's instructions. The concentration of compound in the ultra-filtrate was subjected to reverse-phase liquid chromatography using a 150×2.1 mm Agilent C8 reverse-phase column on a Shimadzu Prominence LC, eluting the compounds with a gradient of 2% to 50% of acetonitrile+0.1% formic acid for compound MI-50,382, or an isocratic flow of 2% acetonitrile+0.1% formic acid for the rest of the compounds listed. The concentration of the compound in the column effluent was measured using an Applied Biosystems API-3200 triple quadrupole mass spectrometer equipped with an electrospray sample injection system. The counts of the characteristic parent and product ions of each test compound were converted to concentration units by comparison with a standard calibration curve.

[10] = Metabolites in serum and urine of dosed rats (LC-MS); assay type: in vivo; details: rat serum/plasma or urine, oral dosing; hydrochloride
Experimental: Oxadiazoles disclosed herein as well as other oxadiazoles were investigated to determine the formation of metabolites. Animals were dosed, blood taken, serum prepared, serum proteins precipitated and ultrafiltrates prepared as described in Example 6. In separate experiments, urine was collected from rats for 16-24 hours after dosing, using standard metabolic cages. The urine container and collected urine were maintained at 4° C. Urine was lyophilized, taken back into water. The ultrafiltrate was prepared by adding formic acid to a final concentration of 1% to the urine samples, then filtered through a 0.2 um nylon membrane. The ultrafiltrate was subjected to LC-MS analysis. Instead of measuring the product ions in Q3, manual Q1 scans of the liquid chromatograph were undertaken, seeking parent ions of potential metabolites of the compounds. The criteria for identifying metabolites were as follows: (1) the ion should be present in the sera or urines of dosed rats, but not in sera or urines from non-dosed rats (2) the ion should be identifiable as a metabolic derivative of the dosed compound (e.g. loss of a functional chemical moiety, addition of a hydroxyl group or a glucuronic acid moiety, etc). Metabolites were determined not to be present if no compound meeting the above criteria could be detected in serum or urine.

T2 sequence (P08483 whole entry): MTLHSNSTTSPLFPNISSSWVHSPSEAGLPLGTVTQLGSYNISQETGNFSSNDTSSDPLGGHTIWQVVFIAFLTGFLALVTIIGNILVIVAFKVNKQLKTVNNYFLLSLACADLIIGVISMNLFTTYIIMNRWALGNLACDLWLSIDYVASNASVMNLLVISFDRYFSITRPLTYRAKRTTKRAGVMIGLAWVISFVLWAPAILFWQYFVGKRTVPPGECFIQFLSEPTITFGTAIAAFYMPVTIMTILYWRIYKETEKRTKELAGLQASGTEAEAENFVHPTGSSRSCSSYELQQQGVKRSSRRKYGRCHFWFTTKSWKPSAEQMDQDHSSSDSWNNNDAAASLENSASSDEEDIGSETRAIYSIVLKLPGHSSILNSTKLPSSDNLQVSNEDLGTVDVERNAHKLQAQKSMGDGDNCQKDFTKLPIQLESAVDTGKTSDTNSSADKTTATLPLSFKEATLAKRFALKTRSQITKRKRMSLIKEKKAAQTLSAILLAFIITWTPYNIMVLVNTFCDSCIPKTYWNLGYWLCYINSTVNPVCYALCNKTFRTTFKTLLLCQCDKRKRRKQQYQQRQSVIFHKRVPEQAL

Structure (SMILES)	functional selectivity for M1- versus M3-subtype by PI turnover [5]	M1/CHO PI turnover Relative Mean Smax [5]	M3/CHO PI turnover Relative Mean Smax [8]	Brain Cmax (10 mg/kg po) MCD-386 = 1.00 [9]	penetration into the brain [9]	Presence of metabolites (10 mg/kg po) [10]	further results
C[N+]1(C)[C@@H]2C[C@@H](OC(=O)[C@H](CO)c3ccccc3)C[C@H]1[C@@H]1O[C@@H]12 [NMS, N-methylscopolamine]							block of increase in salivary gland inositol phosphate caused by 82 ([1]; NMS 0.003 mg/kg): some breakthrough activation; block of increase in salivary gland inositol phosphate caused by 82 ([1]; NMS 0.03 mg/kg to 0.01 mg/kg): nearly as effective as 0.1 mg/kg; block of increase in salivary gland inositol phosphate caused by 82 ([1]; antagonist 0.1 mg/kg NMS): completely block; inhibition of increase in inositol phosphate in the hippocampus caused by 82 [2]: does not inhibit; decrease in salivation caused by 82 ([3]; 0.3 mg/kg of 82): dose-dependent decrease in salivation; reduction in salivation caused by MCD-386 ([3]; 1 mg/kg dose of MCD-386): dose-dependent reduction; reduction of salivation caused by transdermal iontophoretic delivery of 82 [4]: greatly reduced
Cl.[2H]C([2H])([2H])c1noc(C2CN=CNC2)n1 (stereo not drawn) [Compound 74, 3-(d3-methyl)-5-(1,4,5,6-tetrahydropyrimidin-5-yl)-1,2,4-oxadiazole hydrochloride]	not selective for the M1 subtype	98.6					agonist efficacy at M1- and M3-subtype muscarinic receptors by PI turnover [5]: near full-agonist; salivary flow [6]: copious salivary flow
CNC(=C[N+](=O)[O-])NCCSCc1ccc(CN(C)C)o1 [Ranitidine, reference compound]							PAMPA (? × 106): 0.26 ? × 106; Brain/plasma ratio [7]: Very low
[2H]C([2H])([2H])Cc1noc(C2CN=CNC2)n1 (stereo not drawn) [Compound 78, 3-(2,2,2-d3-Ethyl)-5-(1,4,5,6-tetrahydropyrimidin-5-yl)-1,2,4-oxadiazole hydrochloride]		48.9	28.8				
[2H]C([2H])(C)c1noc(C2CN=CNC2)n1 (stereo not drawn) [Compound 66, 3-(2,2-d2-Ethyl)-5-(1,4,5,6-tetrahydropyrimidin-5-yl)-1,2,4-oxadiazole hydrochloride]	M1-subtype functionally selective muscarinic agonists	84.0	15.1	0.82	penetrated into the brain	No metabolites were identified and No	
[2H]C([2H])([2H])C([2H])([2H])c1noc(C2CN=CNC2)n1 (stereo not drawn) [Compound 70, 3-(1,1,2,2,2-d5-ethyl)-5-(1,4,5,6-tetrahydropyrimidin-5-yl)-1,2,4-oxadiazole hydrochloride]	M1-subtype functionally selective muscarinic agonists	67.7	16.5	0.61	penetrated into the brain	No metabolites were identified and No	
